From ChEMBL document CHEMBL1201862, “PubChem BioAssay data set” (2004)
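Dose response: 5 concentrations. Exposure: 48 h. Format: 96-well plates. Endpoint: linear interpolation; highest concentration if not reached. The concentration for 50% growth inhibition is given as GI50.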 Calls of active or inactive are those of the source. Cut-off read from the data, not from the text of the source: active = GI50 up to about 1.1 µM and inactive = higher.

Columns and labels:
Assay in all cases: DTP human tumour cell line panel, 48 h
RXF 393 = test system: RXF 393
SK-OV-3 = test system: SK-OV-3
K562 = test system: K562
SF-539 = test system: SF-539
EKVX = test system: EKVX
NCI-H23 = test system: NCI-H23
HL-60 = test system: HL-60
RPMI-8226 = test system: RPMI-8226
SK-MEL-2 = test system: SK-MEL-2
UACC-257 = test system: UACC-257
NCI-H226 = test system: NCI-H226
UO-31 = test system: UO-31
MDA-MB-231 = test system: MDA-MB-231
U-251 = test system: U-251
NCI/ADR-RES = test system: NCI/ADR-RES
SN12C = test system: SN12C
HT-29 = test system: HT-29
HCT-116 = test system: HCT-116
OVCAR-8 = test system: OVCAR-8
T47D = test system: T47D

SMILES	GI50 (RXF 393)	GI50 (SK-OV-3)	GI50 (K562)	GI50 (SF-539)	GI50 (EKVX)	GI50 (NCI-H23)	GI50 (HL-60)	GI50 (RPMI-8226)	GI50 (SK-MEL-2)	GI50 (UACC-257)	GI50 (NCI-H226)	GI50 (UO-31)	GI50 (MDA-MB-231)	GI50 (U-251)	GI50 (NCI/ADR-RES)	GI50 (SN12C)	GI50 (HT-29)	GI50 (HCT-116)	GI50 (OVCAR-8)	GI50 (T47D)
C=C(Cl)/C(=C\Cl)CCC(Br)C(C)C (configuration not stated)	77.3 µM (inactive)	> 100 µM (inactive)	36.2 µM (inactive)	> 100 µM (inactive)	> 100 µM (inactive)	> 100 µM (inactive)	63.5 µM (inactive)	> 100 µM (inactive)	> 100 µM (inactive)	58.5 µM (inactive)	> 100 µM (inactive)	78.2 µM (inactive)	24.9 µM (inactive)	> 100 µM (inactive)	> 100 µM (inactive)	> 100 µM (inactive)	> 100 µM (inactive)	> 100 µM (inactive)		
O=C1C(/C=C/c2ccc(Cl)cc2)=NNC2N1N=C1NC(=O)C3(NN12)c1ccccc1-c1ccccc13 (configuration not stated)	> 100 µM (inactive)	> 100 µM (inactive)	35.4 µM (inactive)	> 100 µM (inactive)	38.5 µM (inactive)	> 100 µM (inactive)	> 100 µM (inactive)		> 100 µM (inactive)	> 100 µM (inactive)	> 100 µM (inactive)	94 µM (inactive)	> 100 µM (inactive)	> 100 µM (inactive)	> 100 µM (inactive)	> 100 µM (inactive)	66.2 µM (inactive)	> 100 µM (inactive)	> 100 µM (inactive)	
C=CCOC(=O)CC[C@H](NC(=O)[C@@H](CCC(F)(F)F)Cc1ccc(O)cc1)C(=O)OCC=C	> 100 µM (inactive)	> 100 µM (inactive)	41.5 µM (inactive)	90.2 µM (inactive)	27.3 µM (inactive)	38.5 µM (inactive)	85.9 µM (inactive)	30.4 µM (inactive)			> 100 µM (inactive)	> 100 µM (inactive)			> 100 µM (inactive)	45.4 µM (inactive)	> 100 µM (inactive)	> 100 µM (inactive)	> 100 µM (inactive)	20.6 µM (inactive)
O=C(CN1CCOCC1)c1ccc2c(c1)oc(=O)n2CCN1CCOCC1	> 100 µM (inactive)	> 100 µM (inactive)	> 100 µM (inactive)	> 100 µM (inactive)	> 100 µM (inactive)		> 100 µM (inactive)	> 100 µM (inactive)	> 100 µM (inactive)		> 100 µM (inactive)		> 100 µM (inactive)	> 100 µM (inactive)	> 100 µM (inactive)	> 100 µM (inactive)	> 100 µM (inactive)	> 100 µM (inactive)	> 100 µM (inactive)	
O=C(CNc1ccccn1)Nn1cnc2ccc(S(=O)(=O)Nc3ccccn3)cc2c1=O		> 100 µM (inactive)	> 100 µM (inactive)	> 100 µM (inactive)	> 100 µM (inactive)	> 100 µM (inactive)	> 100 µM (inactive)	> 100 µM (inactive)	> 100 µM (inactive)	> 100 µM (inactive)	> 100 µM (inactive)	> 100 µM (inactive)	> 100 µM (inactive)	> 100 µM (inactive)	> 100 µM (inactive)	> 100 µM (inactive)	> 100 µM (inactive)	> 100 µM (inactive)	> 100 µM (inactive)	
C=CCc1cccc2cc(C(=O)Nc3nc(C45CC6CC(CC(C6)C4)C5)cs3)c(=O)oc12	6.08 µM (inactive)		27.4 µM (inactive)	> 100 µM (inactive)	25.1 µM (inactive)	18 µM (inactive)	34 µM (inactive)	26.9 µM (inactive)		32.8 µM (inactive)	29.1 µM (inactive)	10.8 µM (inactive)	23.4 µM (inactive)	20.2 µM (inactive)	27.2 µM (inactive)	45.2 µM (inactive)	49.8 µM (inactive)	> 10 µM (inactive)	85.9 µM (inactive)	
N#Cc1nc(-c2cnccn2)oc1N	> 100 µM (inactive)	> 100 µM (inactive)	> 100 µM (inactive)		> 100 µM (inactive)		> 100 µM (inactive)	49.7 µM (inactive)	> 100 µM (inactive)	> 100 µM (inactive)		62.5 µM (inactive)	> 100 µM (inactive)	> 100 µM (inactive)		> 100 µM (inactive)	> 100 µM (inactive)	> 100 µM (inactive)	> 100 µM (inactive)	
COCCN(C(=O)c1ccccc1)C1CCC2(SCCS2)c2[nH]c3ccccc3c21 (configuration not stated)	20.7 µM (inactive)		15.9 µM (inactive)	85.5 µM (inactive)	30.3 µM (inactive)	51.5 µM (inactive)	14.9 µM (inactive)	20.2 µM (inactive)		59.2 µM (inactive)	> 100 µM (inactive)	40.7 µM (inactive)	57.7 µM (inactive)	46.9 µM (inactive)	30.2 µM (inactive)	40.2 µM (inactive)	49.4 µM (inactive)	37.8 µM (inactive)	25.6 µM (inactive)	
CN(C(=O)c1ccc(Cl)cc1)C(=S)N1CCN(c2ccccc2)CC1	> 100 µM (inactive)		42.1 µM (inactive)			> 100 µM (inactive)	35.6 µM (inactive)	64.3 µM (inactive)	> 100 µM (inactive)	71.4 µM (inactive)	47.5 µM (inactive)	20.1 µM (inactive)	> 100 µM (inactive)	> 100 µM (inactive)		> 100 µM (inactive)	77.6 µM (inactive)		> 100 µM (inactive)	> 100 µM (inactive)
COc1ccc(-c2nc3ncccn3c2-c2ccc(SC)cc2)cc1		0.439 µM (active)	0.869 µM (active)	1.83 µM (inactive)		3.3 µM (inactive)	1.73 µM (inactive)	2.48 µM (inactive)	1.32 µM (inactive)	> 100 µM (inactive)		4.46 µM (inactive)	4.24 µM (inactive)	2.44 µM (inactive)	1.46 µM (inactive)	3.92 µM (inactive)	3.09 µM (inactive)	1.1 µM (active)	3.92 µM (inactive)	
CC(C)C1OC(=O)/C=C/C=C/C=C/C=C/C=C/CC(O)CC(O)CC(O)CC(O)CC(O)CC(O)CC(O)CC(O)/C=C/C1C (configuration not stated)	73.8 µM (inactive)		> 100 µM (inactive)	> 100 µM (inactive)	> 100 µM (inactive)	> 100 µM (inactive)	> 100 µM (inactive)	> 100 µM (inactive)	> 100 µM (inactive)	> 100 µM (inactive)	> 100 µM (inactive)	> 100 µM (inactive)	> 100 µM (inactive)	> 100 µM (inactive)	> 100 µM (inactive)	> 100 µM (inactive)	> 100 µM (inactive)	> 100 µM (inactive)	> 100 µM (inactive)	
COc1ccc(C2=C(OC(C)=O)c3cccn3-c3ccc(Cl)cc3S2)cc1	9.44 µM (inactive)	6.35 µM (inactive)	2.4 µM (inactive)		6.67 µM (inactive)	4.52 µM (inactive)	1.59 µM (inactive)	2.37 µM (inactive)		4.3 µM (inactive)			3.72 µM (inactive)			3.74 µM (inactive)	3.75 µM (inactive)		6.53 µM (inactive)	5.37 µM (inactive)
